Experimental data: patent EP4807001A1, “MODIFICATION TEMPLATE FOR IMPROVING INHIBITORY EFFECT OF DOUBLE-STRANDED OLIGONUCLEOTIDE ON TARGET GENE, COMBINATION THEREOF AND USE THEREOF” (Hangzhou Tianlong Pharmaceutical Co., Ltd., priority 2023, dated 2025)

Columns and labels:
[1] = system: HBV; test: AAV-HBV mouse model, low dose 0.5 mg/kg (Example 15); assay type: in vivo, AAV-HBV mice; conditions: for Log10 HBV DNA (IU/mL) / Log10 HBeAg (S/CO) / Log10 HBsAg (IU/mL) / HBsAb: plasma; for Log10 HBV DNA (IU/mL) / Log10 HBeAg (S/CO) / Log10 HBsAg (IU/mL): AAV-HBV mice, siRNA 0.5 mg/kg s.c. D0/7/14, ETV 0.1 mg/kg daily i.g.
Procedure: In this example, several sequences were exemplarily selected, such as the sequences C207S-DV32SPG5, C207S-DV29SPG5, C418S-DV34SPd7BG5, and C1575-DV27PG5 from Example 14, as shown in Table 49. The in vivo efficacy of these RNAi agents at a low dose (e.g., 0.5 mg/kg) was analyzed using an AAV-HBV mouse model.
Refer to Example 7. Table 51-10: Details of grouping and dosing

[2] = Plasma ALT levels in AAV-HBV mice (Examples 14-16); assay type: in vivo
Procedure: At week 4 (D-14) and week 5 (D-7) post-modeling, on the day prior to dosing (D0), and weekly post-dosing, 200 µL of blood was collected from the inner canthus and added to an EDTA-K2 tube, followed by centrifugation at 1000 g for 10 minutes to obtain plasma. The 12 mice in the two groups were subjected to challenge on D60. 200 µL of blood was collected from the inner canthus on D63, D67, D74, and D81, respectively, and added to an EDTA-K2 tube, followed by centrifugation at 1000 g for 10 minutes to obtain plasma. 20 µL of plasma was added to 980 µL of PBS, vortexed thoroughly, and analyzed for HBsAg, HBV DNA, HBeAg, and ALT levels. Separately, 15 µL of plasma was added to 210 µL of PBS, vortexed thoroughly, and analyzed for HBsAb levels. All processed samples to be tested were analyzed by Guangzhou Huayin Medical Research Institute. The remaining plasma was stored at - 80°C.
Blood was collected from all animals via submandibular venipuncture on Days -2, 6, 13, 20, 27, and 34. The collected blood samples were anticoagulated with EDTA and centrifuged at 5000 rpm for 10 minutes to obtain serum. After blood collection, the serum was separated, diluted with PBS, and sent for analysis. A 10 µL aliquot of serum was taken from each sample, diluted to 500 µL with PBS (50-fold dilution), and sent to Beijing DIAN Medical Laboratory Co., Ltd. for analysis of serum HBV DNA, HBeAg, and HBsAg. A 30 µL aliquot of serum was taken from each sample, diluted to 120 µL with PBS (4-fold dilution), and sent to Beijing DIAN Medical Laboratory Co., Ltd. for analysis of serum ALT. The remaining plasma was stored at -80°C.

[3] = system: AGT mRNA; test: Inhibition of AGT mRNA expression in primary human hepatocytes via free uptake, qRT-PCR (Example 24); assay type: cell-based; conditions: 0.0064 nM to 100 nM, read-out: IC50 against AGT
Procedure: The inhibitory effects of the test samples on AGT mRNA expression in primary human hepatocytes were evaluated by qRT-PCR.
The culture medium was pre-warmed at a constant temperature of 37°C for at least 30 minutes. 300 µL of PBS was added to each well of a collagen-coated 24-well plate, which was shaken several times, and the PBS was aspirated. A cryovial containing hepatocytes was removed from liquid nitrogen, placed in a 37°C water bath, and gently shaken until only a small amount of ice crystals remained in the vial. The cell suspension was poured into thawing medium in one step. 1 mL of thawing medium was pipetted to rinse the inner wall of the cryovial 2 to 3 times. The cell suspension in thawing medium was mixed by inversion. The vial was centrifuged at 50 g for 5 minutes at room temperature, with acceleration set to 5 and deceleration set to 3. The cell suspension was diluted to 3 × 10^5 cells/mL in seeding medium, seeded into a 24-well plate at 0.5 mL per well, followed by incubation in an incubator for 24 hours.
The test samples were diluted to 100 to 0.0064 nM in primary human hepatocyte maintenance medium. […]
The RNA expression levels of the target gene in each sample were calculated based on Ct values using the ΔΔCt relative quantification method. Relative expression of the target gene was expressed as 2^-ΔΔCt. […]

## C=C1[C@H](CO)[C@@H](O)C[C@@H]1n1cnc2c(=O)[nH]c(N)nc21 [entecavir]
[1]; D7, low dose 0.5 mg/kg
  Number of mice producing HBsAb: 0
  HBsAb: 30 mIU/mL
[1]; D14, low dose 0.5 mg/kg
  Number of mice producing HBsAb: 0
  HBsAb: 30 mIU/mL
[1]; D21, low dose 0.5 mg/kg
  Number of mice producing HBsAb: 0
  HBsAb: 30 mIU/mL
[1]; D28, low dose 0.5 mg/kg
  Number of mice producing HBsAb: 0
  HBsAb: 30 mIU/mL
[1]; D35, low dose 0.5 mg/kg
  Number of mice producing HBsAb: 0
  HBsAb: 30 mIU/mL
[1]; D42, low dose 0.5 mg/kg
  Number of mice producing HBsAb: 0
  HBsAb: 30 mIU/mL
[1]; D49, low dose 0.5 mg/kg
  Number of mice producing HBsAb: 0
  HBsAb: 30 mIU/mL
[1]; D56, low dose 0.5 mg/kg
  Number of mice producing HBsAb: 0
  HBsAb: 30 mIU/mL
[1]; D0
  Log10 HBV DNA (IU/mL): 6.91 ± 0.58 IU/mL
  Log10 HBeAg (S/CO): 3.73 ± 0.06 S/CO
  Log10 HBsAg (IU/mL): 3.47 ± 0.34 IU/mL
[1]; D7
  Log10 HBV DNA (IU/mL): 4.49 ± 0.54 IU/mL
  Log10 HBeAg (S/CO): 3.72 ± 0.05 S/CO
  Log10 HBsAg (IU/mL): 3.50 ± 0.33 IU/mL
[1]; D14
  Log10 HBV DNA (IU/mL): 3.85 ± 0.24 IU/mL
  Log10 HBeAg (S/CO): 3.72 ± 0.03 S/CO
  Log10 HBsAg (IU/mL): 3.54 ± 0.25 IU/mL
[1]; D21
  Log10 HBV DNA (IU/mL): 3.89 ± 0.31 IU/mL
  Log10 HBeAg (S/CO): 3.66 ± 0.05 S/CO
  Log10 HBsAg (IU/mL): 3.74 ± 0.14 IU/mL
[1]; D28
  Log10 HBV DNA (IU/mL): 3.77 ± 0.37 IU/mL
  Log10 HBeAg (S/CO): 3.71 ± 0.06 S/CO
  Log10 HBsAg (IU/mL): 3.94 ± 0.27 IU/mL
[1]; D35
  Log10 HBV DNA (IU/mL): 3.74 ± 0.25 IU/mL
  Log10 HBeAg (S/CO): 3.66 ± 0.05 S/CO
  Log10 HBsAg (IU/mL): 3.96 ± 0.39 IU/mL
[1]; D42
  Log10 HBV DNA (IU/mL): 3.63 ± 0.08 IU/mL
  Log10 HBeAg (S/CO): 3.68 ± 0.05 S/CO
  Log10 HBsAg (IU/mL): 4.04 ± 0.40 IU/mL
[1]; D49
  Log10 HBV DNA (IU/mL): 3.97 ± 0.13 IU/mL
  Log10 HBeAg (S/CO): 3.69 ± 0.08 S/CO
  Log10 HBsAg (IU/mL): 4.22 ± 0.33 IU/mL
[1]; D56
  Log10 HBV DNA (IU/mL): 4.04 ± 0.32 IU/mL
  Log10 HBeAg (S/CO): 3.70 ± 0.04 S/CO
  Log10 HBsAg (IU/mL): 4.20 ± 0.30 IU/mL
[1]; D-7 (before dosing)
  Log10 HBV DNA (IU/mL): 6.65 ± 0.58 IU/mL
  Log10 HBeAg (S/CO): 3.77 ± 0.06 S/CO
  Log10 HBsAg (IU/mL): 3.36 ± 0.26 IU/mL
[2]; D7, Example 15 (low dose 0.5 mg/kg)
  ALT: 75 U/L
[2]; D14, Example 15 (low dose 0.5 mg/kg)
  ALT: 75 U/L
[2]; D21, Example 15 (low dose 0.5 mg/kg)
  ALT: 75 U/L
[2]; D28, Example 15 (low dose 0.5 mg/kg)
  ALT: 75 U/L
[2]; D35, Example 15 (low dose 0.5 mg/kg)
  ALT: 75 U/L
[2]; D42, Example 15 (low dose 0.5 mg/kg)
  ALT: 75 U/L

## Zilebesiran
[3]
  IC50: 7.07 nM
